The source of these data is patent US20200404914A1, “HERBICIDALLY ACTIVE BICYCLIC BENZAMIDES” (Bayer Aktiengesellschaft, priority 2018, published 2020).

Test [1] deals with monocotyledonous and dicotyledonous weed plants. The test can be described thus: Pre-emergence herbicidal action (greenhouse pot test, visual scoring after about 3 weeks). It counts as in vivo. The conditions noted are these: for Herbicidal activity ABUTH (Abutilon theophrasti) / Herbicidal activity AMARE (Amaranthus retroflexus) / Herbicidal activity ECHCG (Echinochloa crus-galli) / Herbicidal activity MATIN (Matricaria inodora) / Herbicidal activity STEME (Stellaria media) / Herbicidal activity VERPE (Veronica persica) / Herbicidal activity VIOTR (Viola tricolor) / Herbicidal activity AVEFA (Avena fatua) / Herbicidal activity CYPES (Cyperus esculentus) / Herbicidal activity PHBPU (Ipomoea purpurea) / Herbicidal activity POLCO (Polygonum convolvulus) / Herbicidal activity SETVI (Setaria viridis): pre-emergence (PE). An excerpt:
In the tables below, the following abbreviations are used: Undesired Plants/Weeds: [table] 1. Pre-Emergence Herbicidal Action and Crop Plant Compatibility Seeds of monocotyledonous and dicotyledonous weed plants and crop plants are placed in plastic or organic planting pots and covered with soil. The compounds of the invention, formulated in the form of wettable powders (WP) or as emulsion concentrates (EC), are then applied onto the surface of the covering soil as aqueous suspension or emulsion with addition of 0.5% additive at a water application rate of […] (converted). After the treatment, the pots are placed in a greenhouse and kept under good growth conditions for the trial plants. After about 3 weeks, the effect of the preparations is scored visually in comparison with untreated controls as percentages. The tables below show the herbicidal activity of numerous compounds according to the invention against important harmful plants. For example, 100% activity=the plants have died, 0% activity=like control plants.

Test [2] has as its system monocotyledonous and dicotyledonous weeds. The test can be described thus: Post-emergence herbicidal action (greenhouse pot test, visual rating after about 3 weeks). It counts as in vivo. The conditions noted are these: for Herbicidal activity ABUTH (Abutilon theophrasti) / Herbicidal activity AMARE (Amaranthus retroflexus) / Herbicidal activity ECHCG (Echinochloa crus-galli) / Herbicidal activity VIOTR (Viola tricolor) / Herbicidal activity MATIN (Matricaria inodora) / Herbicidal activity SETVI (Setaria viridis) / Herbicidal activity STEME (Stellaria media) / Herbicidal activity VERPE (Veronica persica): post-emergence (PO). On the procedure:
In the tables below, the following abbreviations are used: Undesired Plants/Weeds: [table] 2. Post-Emergence Herbicidal Action and Crop Plant Compatibility Seeds of monocotyledonous and dicotyledonous weeds and crop plants are placed in sandy loam in plastic or organic planting pots, covered with soil and cultivated in a greenhouse under controlled growth conditions. 2 to 3 weeks after sowing, the test plants are treated at the one-leaf stage. The compounds of the invention, formulated in the form of wettable powders (WP) or as emulsion concentrates (EC), are then sprayed onto the green parts of the plants as aqueous suspension or emulsion with addition of 0.5% additive at a water application rate of […] (converted). After the test plants had been kept in the greenhouse under optimum growth conditions for about 3 weeks, the activity of the preparations is rated visually in comparison to untreated controls. The tables below show the herbicidal activity of numerous compounds according to the invention against important harmful plants. For example, 100% activity=the plants have died, 0% activity=like control plants.

Where [3] appears, read: application rate 80, about 3 weeks.
[4] abbreviates: application rate 20, about 3 weeks.
The mark [5] stands for this setting: application rate 320, about 3 weeks.
[6] abbreviates: pre-emergence comparative experiment, dosage 320 g/ha.
Where [7] appears, read: post-emergence comparative experiment, dosage 80 g/ha.

Regarding `Cn1nnnc1NC(=O)c1ccc(C(F)(F)F)c2c1SCCCS2` [2-5], in test [1] (setting [3]), the “Herbicidal activity ABUTH (Abutilon theophrasti)” value (shortened to “Herbicidal activity ABUTH”) is on record as 100%, the “Herbicidal activity AMARE (Amaranthus retroflexus)” value (“Herbicidal activity AMARE” for short) came to 100%, the “Herbicidal activity ECHCG (Echinochloa crus-galli)” value (“Herbicidal activity ECHCG” below) was found to be 100% and the “Herbicidal activity MATIN (Matricaria inodora)” value (shortened to “Herbicidal activity MATIN”) stood at 100%. For the same compound, in test [1] (setting [3]), the “Herbicidal activity STEME (Stellaria media)” value (“Herbicidal activity STEME” for short) was 100%, the “Herbicidal activity VERPE (Veronica persica)” value (from here on “Herbicidal activity VERPE”) is 100% and the “Herbicidal activity VIOTR (Viola tricolor)” value (“Herbicidal activity VIOTR” below) is on record as 100%. Also, in test [2] (setting [4]), the “Herbicidal activity ABUTH” value was determined as 90%, the “Herbicidal activity AMARE” value was found to be 90%, the “Herbicidal activity ECHCG” value is given as 90% and the “Herbicidal activity VIOTR” value was determined as 80%.

Regarding `Cn1nnnc1NC(=O)c1ccc(C(F)(F)F)c2c1OCCCS2` [2-13, 6-(trifluoromethyl)-3,4-dihydro-2H-1,5-benzoxathiepine-N-(1-methyltetrazol-5-yl)-8-carboxamide], in test [1] (setting [5]), the “Herbicidal activity ABUTH” value stood at 100%, the “Herbicidal activity AMARE” value came out at 100%, the “Herbicidal activity AVEFA (Avena fatua)” value is 100% and the “Herbicidal activity CYPES (Cyperus esculentus)” value (shortened to “Herbicidal activity CYPES”) was found to be 90%. In test [1] (setting [5]), the “Herbicidal activity ECHCG” value is 100%, the “Herbicidal activity MATIN” value is given as 100%, the “Herbicidal activity PHBPU (Ipomoea purpurea)” value (“Herbicidal activity PHBPU” for short) is reported as 100% and the “Herbicidal activity POLCO (Polygonum convolvulus)” value (“Herbicidal activity POLCO” below) is 100%. Moreover, in test [1] (setting [5]), the “Herbicidal activity SETVI (Setaria viridis)” value (“Herbicidal activity SETVI” for short) was determined as 100%, the “Herbicidal activity STEME” value is recorded as 100%, the “Herbicidal activity VERPE” value is reported as 100% and the “Herbicidal activity VIOTR” value was 100%. Further, in test [1] (setting [6]), the “Herbicidal action against ABUTH (Abutilon theophrasti)” value turned out to be 100%, the “Herbicidal action against ALOMY (Alopecurus myosuroides)” value came to 100%, the “Herbicidal action against AVEFA (Avena fatua)” value is recorded as 100% and the Herbicidal action against MATIN (Matricaria inodora) was found to be 100%. Further, the “Herbicidal action against SETVI (Setaria viridis)” value in test [1] (setting [6]) turned out to be 100%. The “herbicidal activity compared to that of compound No. A-117” value in test [1] (pre-emergence, comparative experiment, numerous harmful plants) is recorded as “superiority of the compound according to the invention was demonstrated clearly”. In addition, in test [2] (setting [3]), the “Herbicidal activity ABUTH” value turned out to be 100%, the “Herbicidal activity AMARE” value is 100%, the “Herbicidal activity ECHCG” value turned out to be 100% and the “Herbicidal activity MATIN” value is reported as 80%. In addition, in test [2] (setting [3]), the “Herbicidal activity SETVI” value was 100%, the “Herbicidal activity STEME” value came out at 100%, the “Herbicidal activity VERPE” value amounted to 100% and the “Herbicidal activity VIOTR” value was determined as 100%. For the same compound, in test [2] (setting [7]), the “Herbicidal action against ABUTH (Abutilon theophrasti)” value was 100%, the “Herbicidal action against ALOMY (Alopecurus myosuroides)” value was 90%, the Herbicidal action against AVEFA (Avena fatua) is 100% and the “Herbicidal action against PHPBU” value was 90%. In addition, the “Herbicidal action against POLCO (Polygonum convolvulus)” value in test [2] (setting [7]) is 80%. In addition, the “herbicidal activity compared to that of compound No. A-117” value in test [2] (post-emergence, comparative experiment, numerous harmful plants) is recorded as “superiority of the compound according to the invention was demonstrated clearly”.

In the case of `Cn1nnnc1NC(=O)c1ccc(C(F)(F)F)c2c1OCCC[S+]2[O-]` (stereo not drawn) [2-16], in test [1] (setting [5]), the “Herbicidal activity ABUTH” value worked out at 100%, the “Herbicidal activity AMARE” value is 100%, the “Herbicidal activity AVEFA (Avena fatua)” value is given as 80% and the “Herbicidal activity CYPES” value was found to be 100%. In addition, in test [1] (setting [5]), the “Herbicidal activity ECHCG” value was 100%, the “Herbicidal activity MATIN” value stood at 100%, the “Herbicidal activity PHBPU” value was 80% and the “Herbicidal activity POLCO” value came out at 80%. Also, in test [1] (setting [5]), the “Herbicidal activity SETVI” value stood at 100%, the “Herbicidal activity STEME” value is given as 100%, the “Herbicidal activity VERPE” value is on record as 100% and the “Herbicidal activity VIOTR” value amounted to 100%. Moreover, in test [2] (setting [3]), the “Herbicidal activity ABUTH” value is listed as 100%, the “Herbicidal activity AMARE” value worked out at 100%, the “Herbicidal activity ECHCG” value is on record as 100% and the “Herbicidal activity MATIN” value was found to be 100%. Besides, in test [2] (setting [3]), the “Herbicidal activity SETVI” value was 90%, the “Herbicidal activity STEME” value is recorded as 100%, the “Herbicidal activity VERPE” value came out at 90% and the “Herbicidal activity VIOTR” value is listed as 100%.

As for `Cn1nnnc1NC(=O)c1ccc(C(F)(F)F)c2c1OCCCS2(=O)=O` [2-19], in test [1] (setting [5]), the “Herbicidal activity ABUTH” value came to 100%, the “Herbicidal activity AMARE” value is listed as 100%, the “Herbicidal activity AVEFA (Avena fatua)” value came out at 80% and the “Herbicidal activity CYPES” value amounted to 100%. Moreover, in test [1] (setting [5]), the “Herbicidal activity ECHCG” value stood at 100%, the “Herbicidal activity MATIN” value came out at 100%, the “Herbicidal activity PHBPU” value is 100% and the “Herbicidal activity POLCO” value came to 90%. Also, in test [1] (setting [5]), the “Herbicidal activity SETVI” value turned out to be 100%, the “Herbicidal activity STEME” value came to 100%, the “Herbicidal activity VERPE” value stood at 100% and the “Herbicidal activity VIOTR” value is on record as 100%. For the same compound, in test [2] (setting [3]), the “Herbicidal activity ABUTH” value is 100%, the “Herbicidal activity AMARE” value stood at 100%, the “Herbicidal activity ECHCG” value stood at 100% and the “Herbicidal activity MATIN” value is on record as 90%. Further, in test [2] (setting [3]), the “Herbicidal activity SETVI” value worked out at 90%, the “Herbicidal activity STEME” value is 100%, the “Herbicidal activity VERPE” value is 100% and the “Herbicidal activity VIOTR” value was determined as 100%.

For `Cn1nnnc1NC(=O)c1ccc(C(F)(F)F)c2c1[S+]([O-])CCCS2` (stereo not drawn) [2-76], in test [1] (setting [3]), the “Herbicidal activity AMARE” value was found to be 90% and the “Herbicidal activity VIOTR” value is given as 90%. For the same compound, in test [2] (setting [4]), the “Herbicidal activity ABUTH” value is 80% and the “Herbicidal activity ECHCG” value is reported as 90%.
